Source: patent US9056847B2, “Activity based probes (ABPs) interacting with glycosidases” (ACADEMISCH MEDISCH CENTRUM BIJ UNIVERSITEIT VAN AMSTERDAM, priority 2010, dated 2015)

Biological target: GBA1 (Homo sapiens (Human), UniProt P04062)
Assay: Kinetic constants of GBA1 inhibition (Table 2)
Type: biochemical
Settings: Table 2 kinetic constants

Chain of GBA1 (P04062 40-536): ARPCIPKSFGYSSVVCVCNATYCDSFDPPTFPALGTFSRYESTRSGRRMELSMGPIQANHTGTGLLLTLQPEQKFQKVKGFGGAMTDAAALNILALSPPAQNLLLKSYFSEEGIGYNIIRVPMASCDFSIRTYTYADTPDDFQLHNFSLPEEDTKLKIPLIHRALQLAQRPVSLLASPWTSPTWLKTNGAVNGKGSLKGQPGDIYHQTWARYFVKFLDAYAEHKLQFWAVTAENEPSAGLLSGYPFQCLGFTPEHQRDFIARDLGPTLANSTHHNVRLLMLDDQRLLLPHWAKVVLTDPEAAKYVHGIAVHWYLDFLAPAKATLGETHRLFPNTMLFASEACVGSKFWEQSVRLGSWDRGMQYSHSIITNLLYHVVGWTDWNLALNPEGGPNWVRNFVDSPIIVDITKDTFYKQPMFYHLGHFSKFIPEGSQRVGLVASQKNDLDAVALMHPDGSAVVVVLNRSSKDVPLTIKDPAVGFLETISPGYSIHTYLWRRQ

With `[N-]=[N+]=NC[C@@H]1[C@@H](O)[C@H](O)[C@@H](O)[C@@H]2O[C@H]12` [KY170, (2S,3R,4S,5S)-8-azido-8-deoxy-cyclophellitol] the ki was 0.0237 min⁻¹.
